The source of these data is ChEMBL document CHEMBL5465560, “Selectivity Literature for EUbOPEN Chemogenomic Library” (2024).

The target in experiment [1] is Vascular endothelial growth factor receptor 1 (Homo sapiens) (UniProt P17948). Nature of the experiment: Selectivity interaction (Kinase panel (Z-LYTE Assay)) EUB0001632a FLT1. Particulars: at 10 µM.
Experiment [2] addresses TRAF2 and NCK-interacting protein kinase (Homo sapiens) (UniProt Q9UKE5). Nature of the experiment: Selectivity interaction (KinomeScan (DiscoverX)) EUB0000595a TNIK. Particulars: at 10 µM.
Experiment [3] deals with Activin receptor type-2A (Homo sapiens) (UniProt P27037). Briefly: Selectivity interaction (KinomeScan (DiscoverX)) EUB0000595a ACVR2A. Particulars: at 10 µM.
For experiment [4], the target named is Serine/threonine-protein kinase 38 (Homo sapiens) (UniProt Q15208). Briefly: Selectivity interaction (ActivX KiNativ screen (ex vivo kinase selectivity in human PBMCs)) EUB0001619a STK38. Type of experiment: cell-based. Particulars: PBMC, at 1 µM.
In experiment [5] the target is T1, Ephrin type-B receptor 3 (Homo sapiens) (UniProt P54753).
T1 sequence (whole entry): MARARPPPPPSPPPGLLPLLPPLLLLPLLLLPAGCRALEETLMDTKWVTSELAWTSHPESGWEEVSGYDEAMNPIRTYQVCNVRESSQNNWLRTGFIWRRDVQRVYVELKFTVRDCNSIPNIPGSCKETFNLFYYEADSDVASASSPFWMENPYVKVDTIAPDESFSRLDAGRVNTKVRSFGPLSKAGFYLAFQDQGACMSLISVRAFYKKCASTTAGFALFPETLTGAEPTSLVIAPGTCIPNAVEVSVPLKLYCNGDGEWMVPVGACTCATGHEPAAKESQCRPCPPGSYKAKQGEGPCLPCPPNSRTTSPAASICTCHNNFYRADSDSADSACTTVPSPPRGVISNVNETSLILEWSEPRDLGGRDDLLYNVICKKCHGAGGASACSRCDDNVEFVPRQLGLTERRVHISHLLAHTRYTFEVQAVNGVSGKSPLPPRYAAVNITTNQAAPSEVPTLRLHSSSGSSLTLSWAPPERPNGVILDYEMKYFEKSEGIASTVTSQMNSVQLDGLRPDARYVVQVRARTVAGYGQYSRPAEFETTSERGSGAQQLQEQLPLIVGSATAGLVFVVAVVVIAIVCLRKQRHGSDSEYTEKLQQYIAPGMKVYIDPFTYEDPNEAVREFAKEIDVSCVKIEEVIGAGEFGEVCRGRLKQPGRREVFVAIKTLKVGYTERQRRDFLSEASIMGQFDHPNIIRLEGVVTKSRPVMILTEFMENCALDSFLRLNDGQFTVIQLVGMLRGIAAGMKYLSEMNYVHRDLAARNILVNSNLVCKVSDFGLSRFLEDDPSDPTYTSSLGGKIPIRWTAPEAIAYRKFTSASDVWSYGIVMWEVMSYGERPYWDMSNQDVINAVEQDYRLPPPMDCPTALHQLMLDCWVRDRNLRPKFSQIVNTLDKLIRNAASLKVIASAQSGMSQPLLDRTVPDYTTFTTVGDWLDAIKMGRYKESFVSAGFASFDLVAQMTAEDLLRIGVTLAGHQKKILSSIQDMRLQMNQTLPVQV
Nature of the experiment: Selectivity interaction (KinomeScan (DiscoverX)) EUB0001619a EPHB3. Particulars: at 1 µM.

For experiment [6], the target named is Glycogen synthase kinase-3 alpha (Homo sapiens, UniProt P49840). Briefly: Selectivity interaction (KinomeScan (DiscoverX)) EUB0000666a GSK3A. Conditions: at 10 µM.
Experiment [7] addresses Serine/threonine-protein kinase PLK3 (Homo sapiens, UniProt Q9H4B4). Briefly: Selectivity interaction (KinomeScan (DiscoverX)) EUB0000666a PLK3. Conditions: at 10 µM.
Experiment [8] addresses T2, Dual specificity protein kinase TTK (Homo sapiens) (UniProt P33981).
T2 sequence (whole entry): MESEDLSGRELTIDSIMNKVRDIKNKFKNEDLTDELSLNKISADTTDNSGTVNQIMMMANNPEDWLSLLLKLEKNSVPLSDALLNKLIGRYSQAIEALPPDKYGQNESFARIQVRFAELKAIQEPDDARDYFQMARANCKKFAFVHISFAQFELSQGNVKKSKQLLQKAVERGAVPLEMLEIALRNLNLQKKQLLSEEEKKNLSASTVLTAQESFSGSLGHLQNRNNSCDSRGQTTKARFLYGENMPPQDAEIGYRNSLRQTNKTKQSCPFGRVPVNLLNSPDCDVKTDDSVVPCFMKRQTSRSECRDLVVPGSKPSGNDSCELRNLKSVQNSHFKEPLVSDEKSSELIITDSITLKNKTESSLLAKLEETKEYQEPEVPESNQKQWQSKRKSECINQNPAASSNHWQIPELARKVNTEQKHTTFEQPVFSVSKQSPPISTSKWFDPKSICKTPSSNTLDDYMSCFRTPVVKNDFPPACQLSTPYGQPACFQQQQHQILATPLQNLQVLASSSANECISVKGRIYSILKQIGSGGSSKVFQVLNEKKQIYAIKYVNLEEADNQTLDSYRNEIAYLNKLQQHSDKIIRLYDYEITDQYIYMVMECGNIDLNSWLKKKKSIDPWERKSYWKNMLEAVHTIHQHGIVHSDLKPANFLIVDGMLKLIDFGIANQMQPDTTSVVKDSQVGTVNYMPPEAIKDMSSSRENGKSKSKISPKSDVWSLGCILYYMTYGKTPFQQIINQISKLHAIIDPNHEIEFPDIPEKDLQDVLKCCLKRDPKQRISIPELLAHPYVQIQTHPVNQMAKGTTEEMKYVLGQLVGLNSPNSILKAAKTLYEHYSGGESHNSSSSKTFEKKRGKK
Briefly: Selectivity interaction (KinomeScan (DiscoverX)) EUB0000607a TTK. Conditions: at 10 µM.

For experiment [9], the target named is SRSF protein kinase 1 (Homo sapiens, UniProt Q96SB4). Briefly: Selectivity interaction (ActivX KiNativ screen (kinase selectivity in THP-1 cell lysates)) EUB0000639a SRPK1. The experiment is classed as subcellular. Particulars: lysate, at 1 µM.
Experiment [10] deals with Glycogen synthase kinase-3 beta (Homo sapiens, UniProt P49841). Briefly: Selectivity interaction (KinomeScan (DiscoverX)) EUB0000618a GSK3B. Particulars: at 10 µM.
Experiment [11] deals with Maternal embryonic leucine zipper kinase (Homo sapiens) (UniProt Q14680). Briefly: Selectivity interaction (Kinase panel (DSF assay)) EUB0001558a MELK.
The target of experiment [12] is MAP/microtubule affinity-regulating kinase 3 (Homo sapiens) (UniProt P27448). Nature of the experiment: Selectivity interaction (KinomeScan (DiscoverX)) EUB0001079a MARK3. Particulars: at 1 µM.
Experiment [13] has as its target Sodium-dependent noradrenaline transporter (Homo sapiens, UniProt P23975). Nature of the experiment: Selectivity interaction (GPCR panel (PDSP screen)) EUB0001079a SLC6A2. Conditions: at 10 µM.
The target in experiment [14] is Insulin-like growth factor 1 receptor (Homo sapiens, UniProt P08069). Briefly: Selectivity interaction (KinomeScan (DiscoverX)) EUB0000229b IGF1R. Particulars: at 10 µM.
The target in experiment [15] is Tyrosine-protein kinase JAK1 (Homo sapiens, UniProt P23458). Briefly: Selectivity interaction (Kinase panel (KiNativ target engagement assay in Jurkat cells)) EUB0001635a JAK1. The experiment is classed as cell-based. Particulars: Selectivity number of off-targets 0.0, Selectivity number of targets 233.0, Source Knowledge https://www.sciencedirect.com/science/article/pii/S2451945619300674?via%3Dihub, at 1 µM.
Tyrosine-protein kinase JAK1, sequence (P23458 whole entry): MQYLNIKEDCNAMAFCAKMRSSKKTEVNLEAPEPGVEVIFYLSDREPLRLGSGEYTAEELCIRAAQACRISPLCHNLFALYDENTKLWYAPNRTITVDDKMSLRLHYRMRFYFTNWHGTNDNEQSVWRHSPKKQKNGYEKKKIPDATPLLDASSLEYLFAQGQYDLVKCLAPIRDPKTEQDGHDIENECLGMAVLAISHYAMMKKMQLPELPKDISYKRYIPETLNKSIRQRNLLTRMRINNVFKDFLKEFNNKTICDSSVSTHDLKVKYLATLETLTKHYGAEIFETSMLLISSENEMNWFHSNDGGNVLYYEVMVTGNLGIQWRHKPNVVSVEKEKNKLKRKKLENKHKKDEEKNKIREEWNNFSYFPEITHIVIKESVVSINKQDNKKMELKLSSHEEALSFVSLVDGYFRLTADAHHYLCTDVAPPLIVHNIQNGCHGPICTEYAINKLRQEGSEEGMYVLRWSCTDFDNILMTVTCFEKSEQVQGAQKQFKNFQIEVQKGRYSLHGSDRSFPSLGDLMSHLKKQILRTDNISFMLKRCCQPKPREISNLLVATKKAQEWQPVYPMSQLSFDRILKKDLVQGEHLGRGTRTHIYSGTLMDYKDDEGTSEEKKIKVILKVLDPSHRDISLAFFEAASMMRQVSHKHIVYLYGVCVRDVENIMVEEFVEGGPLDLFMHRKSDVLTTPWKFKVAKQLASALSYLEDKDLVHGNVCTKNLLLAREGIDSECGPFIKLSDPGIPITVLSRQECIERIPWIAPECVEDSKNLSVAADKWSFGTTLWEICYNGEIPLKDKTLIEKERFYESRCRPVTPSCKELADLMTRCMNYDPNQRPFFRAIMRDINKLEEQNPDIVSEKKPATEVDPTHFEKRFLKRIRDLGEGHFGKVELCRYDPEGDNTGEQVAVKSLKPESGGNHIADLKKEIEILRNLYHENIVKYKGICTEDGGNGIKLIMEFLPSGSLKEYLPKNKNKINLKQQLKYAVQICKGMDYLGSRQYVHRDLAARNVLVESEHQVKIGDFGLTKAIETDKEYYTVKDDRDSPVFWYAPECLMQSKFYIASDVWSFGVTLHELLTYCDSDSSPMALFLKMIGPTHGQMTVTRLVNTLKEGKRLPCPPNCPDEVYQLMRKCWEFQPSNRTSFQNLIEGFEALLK

SRSF protein kinase 1, sequence (Q96SB4 whole entry): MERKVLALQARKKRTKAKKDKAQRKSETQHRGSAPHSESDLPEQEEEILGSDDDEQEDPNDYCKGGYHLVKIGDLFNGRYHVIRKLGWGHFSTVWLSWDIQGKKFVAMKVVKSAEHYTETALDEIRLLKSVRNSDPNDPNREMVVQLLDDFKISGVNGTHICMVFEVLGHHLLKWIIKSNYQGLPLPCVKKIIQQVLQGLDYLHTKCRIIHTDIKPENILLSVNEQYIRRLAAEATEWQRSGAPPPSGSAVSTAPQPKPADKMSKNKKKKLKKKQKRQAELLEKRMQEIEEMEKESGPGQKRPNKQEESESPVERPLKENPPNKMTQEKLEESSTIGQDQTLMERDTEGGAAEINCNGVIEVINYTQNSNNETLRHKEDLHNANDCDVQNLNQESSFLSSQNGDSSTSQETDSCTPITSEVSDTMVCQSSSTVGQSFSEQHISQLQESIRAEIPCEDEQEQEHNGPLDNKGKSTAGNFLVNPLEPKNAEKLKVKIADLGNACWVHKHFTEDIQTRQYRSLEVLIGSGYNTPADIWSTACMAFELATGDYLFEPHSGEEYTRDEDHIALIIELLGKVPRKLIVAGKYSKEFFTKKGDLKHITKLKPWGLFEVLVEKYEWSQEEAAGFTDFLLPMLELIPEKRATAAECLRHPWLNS
Insulin-like growth factor 1 receptor, sequence (P08069 31-736 limits assumed): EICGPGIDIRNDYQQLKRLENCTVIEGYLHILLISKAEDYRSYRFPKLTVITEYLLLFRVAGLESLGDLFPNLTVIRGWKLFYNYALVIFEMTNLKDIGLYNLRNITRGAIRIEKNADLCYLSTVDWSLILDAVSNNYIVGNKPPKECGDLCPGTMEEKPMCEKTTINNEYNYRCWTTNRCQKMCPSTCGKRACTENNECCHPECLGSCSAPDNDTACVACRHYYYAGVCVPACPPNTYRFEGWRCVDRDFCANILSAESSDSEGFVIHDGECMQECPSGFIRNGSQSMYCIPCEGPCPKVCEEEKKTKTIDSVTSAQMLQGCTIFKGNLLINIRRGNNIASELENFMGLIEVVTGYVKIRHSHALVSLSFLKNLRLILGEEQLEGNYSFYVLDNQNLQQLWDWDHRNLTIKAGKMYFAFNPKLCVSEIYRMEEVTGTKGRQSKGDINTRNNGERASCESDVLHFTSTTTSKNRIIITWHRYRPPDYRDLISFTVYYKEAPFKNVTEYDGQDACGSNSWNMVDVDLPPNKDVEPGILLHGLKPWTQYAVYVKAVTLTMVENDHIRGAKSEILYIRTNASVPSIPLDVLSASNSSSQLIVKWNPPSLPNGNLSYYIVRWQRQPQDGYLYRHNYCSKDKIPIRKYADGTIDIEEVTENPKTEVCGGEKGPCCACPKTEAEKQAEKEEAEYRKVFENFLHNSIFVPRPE
Insulin-like growth factor 1 receptor, sequence (P08069 741-1367 limits assumed): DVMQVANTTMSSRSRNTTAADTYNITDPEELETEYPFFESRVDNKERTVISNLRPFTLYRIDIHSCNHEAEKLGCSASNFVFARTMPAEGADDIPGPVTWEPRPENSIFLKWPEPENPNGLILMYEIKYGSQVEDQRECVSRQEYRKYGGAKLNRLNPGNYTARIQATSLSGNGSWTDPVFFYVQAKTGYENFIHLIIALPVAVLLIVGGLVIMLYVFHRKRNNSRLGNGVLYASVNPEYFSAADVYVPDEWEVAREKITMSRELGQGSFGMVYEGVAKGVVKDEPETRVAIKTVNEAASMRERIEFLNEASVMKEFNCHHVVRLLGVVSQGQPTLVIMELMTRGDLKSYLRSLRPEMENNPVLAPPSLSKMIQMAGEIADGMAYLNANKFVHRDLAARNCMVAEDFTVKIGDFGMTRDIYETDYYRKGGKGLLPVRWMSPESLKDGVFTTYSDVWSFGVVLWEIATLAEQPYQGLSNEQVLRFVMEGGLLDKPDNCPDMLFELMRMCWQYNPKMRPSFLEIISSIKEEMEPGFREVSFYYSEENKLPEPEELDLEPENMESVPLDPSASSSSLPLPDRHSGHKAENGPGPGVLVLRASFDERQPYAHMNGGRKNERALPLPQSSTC
TRAF2 and NCK-interacting protein kinase (Homo sapiens), sequence (Q9UKE5 whole entry, looked up): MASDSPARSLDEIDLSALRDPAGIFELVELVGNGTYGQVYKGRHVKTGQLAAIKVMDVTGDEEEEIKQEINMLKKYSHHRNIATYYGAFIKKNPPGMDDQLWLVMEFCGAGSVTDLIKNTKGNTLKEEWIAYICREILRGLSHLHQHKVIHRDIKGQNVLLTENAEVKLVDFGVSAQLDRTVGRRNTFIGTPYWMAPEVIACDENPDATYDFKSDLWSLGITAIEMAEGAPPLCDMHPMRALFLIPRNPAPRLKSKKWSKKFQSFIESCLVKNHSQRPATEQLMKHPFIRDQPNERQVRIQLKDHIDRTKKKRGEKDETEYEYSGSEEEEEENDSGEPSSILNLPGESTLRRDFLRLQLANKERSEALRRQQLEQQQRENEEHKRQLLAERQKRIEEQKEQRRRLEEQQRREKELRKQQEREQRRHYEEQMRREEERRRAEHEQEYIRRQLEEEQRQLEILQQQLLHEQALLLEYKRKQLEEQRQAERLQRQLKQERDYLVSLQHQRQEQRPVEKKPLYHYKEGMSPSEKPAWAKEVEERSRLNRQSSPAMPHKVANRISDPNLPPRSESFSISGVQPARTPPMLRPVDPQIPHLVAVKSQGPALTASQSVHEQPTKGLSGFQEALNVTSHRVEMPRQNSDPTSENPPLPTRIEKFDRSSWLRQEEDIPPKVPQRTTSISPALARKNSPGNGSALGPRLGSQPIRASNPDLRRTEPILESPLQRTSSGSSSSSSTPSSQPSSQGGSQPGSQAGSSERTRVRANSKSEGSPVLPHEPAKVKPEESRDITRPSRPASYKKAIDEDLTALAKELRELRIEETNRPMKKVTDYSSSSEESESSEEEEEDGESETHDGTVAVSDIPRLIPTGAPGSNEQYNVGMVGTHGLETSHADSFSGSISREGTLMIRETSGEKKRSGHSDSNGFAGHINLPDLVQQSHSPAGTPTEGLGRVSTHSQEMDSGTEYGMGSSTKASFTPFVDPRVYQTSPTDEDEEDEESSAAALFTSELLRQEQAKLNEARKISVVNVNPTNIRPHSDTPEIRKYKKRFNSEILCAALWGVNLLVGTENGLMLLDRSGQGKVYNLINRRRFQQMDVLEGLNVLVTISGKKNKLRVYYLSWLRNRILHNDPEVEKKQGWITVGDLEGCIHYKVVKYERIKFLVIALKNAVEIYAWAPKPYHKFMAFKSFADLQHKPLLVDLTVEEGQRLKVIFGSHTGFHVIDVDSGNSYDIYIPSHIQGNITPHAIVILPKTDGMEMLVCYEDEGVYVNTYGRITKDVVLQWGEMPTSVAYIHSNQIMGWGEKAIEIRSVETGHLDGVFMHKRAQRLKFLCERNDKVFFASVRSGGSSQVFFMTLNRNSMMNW
Activin receptor type-2A (Homo sapiens), sequence (P27037 whole entry): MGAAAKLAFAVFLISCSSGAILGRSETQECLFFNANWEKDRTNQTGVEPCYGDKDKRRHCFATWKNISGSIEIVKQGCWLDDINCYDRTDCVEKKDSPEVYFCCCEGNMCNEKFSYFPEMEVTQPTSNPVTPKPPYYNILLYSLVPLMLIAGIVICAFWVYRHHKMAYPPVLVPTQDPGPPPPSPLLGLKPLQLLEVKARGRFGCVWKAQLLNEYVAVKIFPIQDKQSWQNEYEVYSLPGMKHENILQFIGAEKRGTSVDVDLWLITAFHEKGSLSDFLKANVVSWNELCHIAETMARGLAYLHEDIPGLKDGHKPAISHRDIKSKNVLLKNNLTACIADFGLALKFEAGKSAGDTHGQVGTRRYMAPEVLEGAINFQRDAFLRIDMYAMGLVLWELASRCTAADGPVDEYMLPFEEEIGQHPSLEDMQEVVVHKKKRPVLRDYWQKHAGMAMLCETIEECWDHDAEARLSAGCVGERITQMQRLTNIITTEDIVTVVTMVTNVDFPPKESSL

`Cn1cc(-n2cnc3c(NCc4nc5cc(Cl)c(Cl)cc5[nH]4)nc(N4CCOCC4)nc32)cn1` came in with a % of control in [1] of 1.04%.
`COCC(=O)NC/C=C/c1ccc2ncnc(Nc3ccc(Oc4ccc(C)nc4)c(C)c3)c2c1` [CP-724714]: the values for the % of control in experiment [2] and in experiment [3] were 89% and 100%, respectively.
Compound `N#Cc1cccc(-c2c[nH]c3ncnc(N4CCOCC4)c23)c1` came in with a % of inhibition in experiment [4] of 3%. The compound also registered a % of control in experiment [5] of 100%.
With `O=C(NOC[C@H](O)CO)c1ccc(F)c(F)c1Nc1ccc(I)cc1F`, the % of control in experiment [6] was determined as 90%; in [7], 100%.
The compound `CNC(=O)Nc1ccc(-c2nc(N3CC4CCC(C3)O4)c3cnn(C4CCC5(CC4)OCCO5)c3n2)cc1` showed a % of control in experiment [8] of 100%.
Turning to `CC[C@@H]1[C@H](F)C(=O)N[C@@H]1COc1nccc2cc(C(N)=O)c(OC)cc12` [ZIMLOVISERTIB], in experiment [9], the % of inhibition is 0.5%.
`O[C@H]1CC[C@H](Nc2ncc3nc(Nc4c(F)cc(F)cc4F)n([C@H]4CCOC4)c3n2)CC1` gave a % of control in experiment [10] of 95%.
In turn, `CC(C)(O)[C@H](F)CN1Cc2cc(NC(=O)c3cnn4cccnc34)c(N3CCOCC3)cc2C1=O` showed a dTM in experiment [11] of 0.9 K.
Regarding `Nc1cnc(N2CCc3cc(S(=O)(=O)Nc4c(F)cc(Cl)cc4F)cc(N4CCCC4=O)c32)nc1` [TP-020n], the % of control in [12] turned out to be 100%. This compound also gave a % of inhibition in experiment [13] of 18.2%.
With `COc1cc(N(C)c2ccnc3ccc(C(F)(F)F)cc23)cc(OC)c1OC`, in [14], the % binding turned out to be 93%.
For `C=CC(=O)Nc1ccc(C(=O)Nc2[nH]nc3c2CN(C(=O)N[C@H](CN(C)C)c2ccccc2)C3(C)C)cc1`, in experiment [15], the % of engagement was 11.1%.
